# Results from ChEMBL document CHEMBL1201862, “PubChem BioAssay data set” (2004).
# Active and inactive are the calls of the source.
# Tests used:
# Cytochrome P450 1A2 = target: T1, Cytochrome P450 1A2 (Homo sapiens, UniProt P05177);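 also: PubChem cytochrome P450 panel assay, CYP1A2 panel member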
# T1 sequence (P05177 whole entry): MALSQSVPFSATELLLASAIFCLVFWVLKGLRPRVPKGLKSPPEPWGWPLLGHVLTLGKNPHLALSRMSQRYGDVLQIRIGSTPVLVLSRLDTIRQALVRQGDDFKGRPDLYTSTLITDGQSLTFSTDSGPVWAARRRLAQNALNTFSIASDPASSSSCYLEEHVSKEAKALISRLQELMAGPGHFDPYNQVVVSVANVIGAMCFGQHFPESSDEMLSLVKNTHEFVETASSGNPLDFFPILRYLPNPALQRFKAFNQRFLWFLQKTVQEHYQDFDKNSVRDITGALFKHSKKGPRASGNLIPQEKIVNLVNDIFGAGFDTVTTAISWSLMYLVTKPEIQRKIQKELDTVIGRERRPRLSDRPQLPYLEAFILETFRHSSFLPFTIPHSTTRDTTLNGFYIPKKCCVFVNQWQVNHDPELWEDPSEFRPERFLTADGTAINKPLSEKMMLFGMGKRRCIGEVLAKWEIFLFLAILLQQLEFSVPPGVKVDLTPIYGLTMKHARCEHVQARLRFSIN
# Cytochrome P450 2C9 = Cytochrome P450 2C9 (Homo sapiens, UniProt P11712)
# Cytochrome P450 2C19 = Cytochrome P450 2C19 (Homo sapiens, UniProt P33261); assay: Cytochrome panel assay with activity outcomes. Panel member name: p450-cyp2c19 Compounds with AC50 equal or less than 10 uM are considered active; type: functional
# Cytochrome P450 3A4 = Cytochrome P450 3A4 (Homo sapiens, UniProt P08684);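 also: CYP3A4 tested as one member of a cytochrome P450 panel screen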
# [1] = target: T2, Replicative DNA helicase DnaB (Mycobacterium tuberculosis, UniProt P9WMR3); assay: DnaB intein splicing inhibitors, dose response, biochemical, cell-free fluorescence (AID 449749); type: functional
# T2 sequence (P9WMR3 whole entry): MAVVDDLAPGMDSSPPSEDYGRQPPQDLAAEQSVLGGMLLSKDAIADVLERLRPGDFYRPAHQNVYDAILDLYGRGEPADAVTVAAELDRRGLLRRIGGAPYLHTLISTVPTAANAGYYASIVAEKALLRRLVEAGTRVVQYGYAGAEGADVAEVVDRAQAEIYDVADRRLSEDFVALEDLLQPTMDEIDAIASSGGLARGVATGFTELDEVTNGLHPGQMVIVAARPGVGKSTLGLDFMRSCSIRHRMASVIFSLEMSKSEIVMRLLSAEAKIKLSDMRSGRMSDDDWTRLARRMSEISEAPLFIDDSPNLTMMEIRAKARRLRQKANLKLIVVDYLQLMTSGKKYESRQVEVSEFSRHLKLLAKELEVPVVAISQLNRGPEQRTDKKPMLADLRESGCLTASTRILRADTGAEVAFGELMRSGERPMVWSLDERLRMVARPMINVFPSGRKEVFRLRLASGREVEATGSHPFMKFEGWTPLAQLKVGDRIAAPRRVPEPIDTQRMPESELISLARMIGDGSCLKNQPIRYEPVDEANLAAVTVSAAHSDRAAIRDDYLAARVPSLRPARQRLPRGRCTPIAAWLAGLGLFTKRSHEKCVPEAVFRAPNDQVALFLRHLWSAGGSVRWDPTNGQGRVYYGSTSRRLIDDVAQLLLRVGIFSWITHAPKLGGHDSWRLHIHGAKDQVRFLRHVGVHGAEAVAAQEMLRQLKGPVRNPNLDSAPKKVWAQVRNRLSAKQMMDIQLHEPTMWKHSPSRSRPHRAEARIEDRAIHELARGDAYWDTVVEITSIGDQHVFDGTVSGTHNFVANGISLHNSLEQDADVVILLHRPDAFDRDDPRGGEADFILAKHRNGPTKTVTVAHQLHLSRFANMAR
# Protein RecA = target: T3, Protein RecA (Mycobacterium tuberculosis, UniProt P9WHJ3); assay: Fluorescence Cell-Free Homogeneous Dose Retest to Identify Inhibitors of RecA-Intein Splicing Activity. [Related pubchem assays (depositor defined):AID2097, AID2223, AID489010, AID492950]; type: functional
# T3 sequence (P9WHJ3 whole entry): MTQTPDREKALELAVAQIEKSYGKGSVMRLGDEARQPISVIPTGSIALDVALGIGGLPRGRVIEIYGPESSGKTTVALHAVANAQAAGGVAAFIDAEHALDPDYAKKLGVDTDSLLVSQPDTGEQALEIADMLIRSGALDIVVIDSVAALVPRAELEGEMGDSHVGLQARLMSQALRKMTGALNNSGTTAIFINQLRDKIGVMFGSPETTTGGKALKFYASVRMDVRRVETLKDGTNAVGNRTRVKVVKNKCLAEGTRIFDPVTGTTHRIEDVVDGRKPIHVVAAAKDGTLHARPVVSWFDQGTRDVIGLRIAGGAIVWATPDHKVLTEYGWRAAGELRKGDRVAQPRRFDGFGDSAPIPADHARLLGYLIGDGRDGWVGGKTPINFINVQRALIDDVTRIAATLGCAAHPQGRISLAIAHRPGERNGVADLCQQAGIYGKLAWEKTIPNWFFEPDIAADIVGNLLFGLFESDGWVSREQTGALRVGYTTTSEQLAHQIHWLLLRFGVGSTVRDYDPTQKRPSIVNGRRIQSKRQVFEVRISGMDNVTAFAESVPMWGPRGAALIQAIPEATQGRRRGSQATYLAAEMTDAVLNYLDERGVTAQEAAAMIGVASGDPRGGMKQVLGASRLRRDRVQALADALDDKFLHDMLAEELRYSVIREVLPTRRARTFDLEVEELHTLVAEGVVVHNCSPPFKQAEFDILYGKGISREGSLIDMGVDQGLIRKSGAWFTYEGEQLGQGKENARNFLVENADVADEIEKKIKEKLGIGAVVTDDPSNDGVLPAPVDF
# Cytochrome P450 2D6 = Cytochrome P450 2D6 (Homo sapiens, UniProt P10635);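 also: CYP2D6 member of a cytochrome P450 panel assay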
# [2] = fluconazole-exposed Candida albicans growth modulators – fluorescence, retest, confirmation (AID 2467); type: functional, cell-based
# [3] = target: T4, Heat shock factor protein 1 (Mus musculus, UniProt P38532); assay: decrease of HSF1-responsive luciferase luminescence – cell-based, NIH3T3, dose retest, confirmation (AID 2382); type: functional;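 also: NIH3T3 fibroblasts with HSF1-driven luciferase reporter stressed by proteasome inhibitor MG132; luminescence from HSF1-driven luciferase expression after 8 hours of MG132 stress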
# T4 sequence (P38532 whole entry): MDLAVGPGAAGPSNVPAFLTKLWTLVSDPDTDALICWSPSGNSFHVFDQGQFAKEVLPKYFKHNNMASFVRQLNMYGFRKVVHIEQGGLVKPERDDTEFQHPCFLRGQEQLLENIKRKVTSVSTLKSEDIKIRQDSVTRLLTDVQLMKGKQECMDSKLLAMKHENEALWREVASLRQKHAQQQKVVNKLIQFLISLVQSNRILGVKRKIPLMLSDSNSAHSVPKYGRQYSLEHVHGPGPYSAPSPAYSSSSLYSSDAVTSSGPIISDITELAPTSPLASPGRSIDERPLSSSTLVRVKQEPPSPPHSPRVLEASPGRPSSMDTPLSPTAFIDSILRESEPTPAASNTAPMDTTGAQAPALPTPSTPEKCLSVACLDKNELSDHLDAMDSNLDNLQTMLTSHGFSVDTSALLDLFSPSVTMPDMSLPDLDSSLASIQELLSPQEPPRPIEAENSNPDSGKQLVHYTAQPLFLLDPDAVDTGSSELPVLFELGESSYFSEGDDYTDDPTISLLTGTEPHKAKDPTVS
# Sequence of Cytochrome P450 2C9 (P11712 whole entry): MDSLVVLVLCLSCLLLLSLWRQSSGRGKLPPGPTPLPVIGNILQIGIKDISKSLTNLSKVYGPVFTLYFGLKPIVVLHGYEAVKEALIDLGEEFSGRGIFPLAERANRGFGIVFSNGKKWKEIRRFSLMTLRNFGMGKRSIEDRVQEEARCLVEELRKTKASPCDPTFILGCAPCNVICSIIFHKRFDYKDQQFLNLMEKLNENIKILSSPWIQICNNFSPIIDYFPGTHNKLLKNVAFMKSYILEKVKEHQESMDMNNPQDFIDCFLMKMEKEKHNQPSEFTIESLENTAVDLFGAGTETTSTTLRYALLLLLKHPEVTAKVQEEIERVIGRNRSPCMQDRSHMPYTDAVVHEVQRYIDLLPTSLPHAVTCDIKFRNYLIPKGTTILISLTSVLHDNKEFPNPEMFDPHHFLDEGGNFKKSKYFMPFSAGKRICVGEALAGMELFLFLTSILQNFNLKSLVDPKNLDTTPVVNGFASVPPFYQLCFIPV
# Sequence of Cytochrome P450 2D6 (P10635 whole entry): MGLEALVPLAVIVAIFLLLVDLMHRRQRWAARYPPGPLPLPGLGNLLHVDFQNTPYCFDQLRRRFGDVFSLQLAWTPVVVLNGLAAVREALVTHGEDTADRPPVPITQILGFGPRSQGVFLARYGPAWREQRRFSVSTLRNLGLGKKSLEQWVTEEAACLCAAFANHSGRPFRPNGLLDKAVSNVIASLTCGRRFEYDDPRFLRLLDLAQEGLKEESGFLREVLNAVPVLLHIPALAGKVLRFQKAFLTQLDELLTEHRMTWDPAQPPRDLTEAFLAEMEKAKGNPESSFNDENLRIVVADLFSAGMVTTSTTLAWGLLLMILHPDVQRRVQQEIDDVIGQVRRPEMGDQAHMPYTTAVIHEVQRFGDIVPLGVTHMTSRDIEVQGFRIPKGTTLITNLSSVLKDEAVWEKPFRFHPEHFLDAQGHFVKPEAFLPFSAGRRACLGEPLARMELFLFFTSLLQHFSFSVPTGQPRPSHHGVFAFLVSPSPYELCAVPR
# Sequence of Cytochrome P450 2C19 (P33261 whole entry): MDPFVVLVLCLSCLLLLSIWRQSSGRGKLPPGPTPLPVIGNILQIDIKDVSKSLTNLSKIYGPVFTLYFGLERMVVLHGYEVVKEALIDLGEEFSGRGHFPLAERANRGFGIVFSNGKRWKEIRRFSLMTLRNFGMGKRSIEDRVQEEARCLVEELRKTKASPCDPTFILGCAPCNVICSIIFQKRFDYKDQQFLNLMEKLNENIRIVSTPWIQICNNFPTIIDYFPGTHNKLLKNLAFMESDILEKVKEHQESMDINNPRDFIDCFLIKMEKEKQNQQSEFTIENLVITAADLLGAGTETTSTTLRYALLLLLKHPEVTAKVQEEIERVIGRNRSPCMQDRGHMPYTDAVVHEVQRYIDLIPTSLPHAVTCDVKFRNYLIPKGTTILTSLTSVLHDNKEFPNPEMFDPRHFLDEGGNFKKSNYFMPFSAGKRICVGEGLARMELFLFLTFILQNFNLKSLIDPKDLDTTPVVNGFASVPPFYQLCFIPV
# Sequence of Cytochrome P450 3A4 (P08684 whole entry): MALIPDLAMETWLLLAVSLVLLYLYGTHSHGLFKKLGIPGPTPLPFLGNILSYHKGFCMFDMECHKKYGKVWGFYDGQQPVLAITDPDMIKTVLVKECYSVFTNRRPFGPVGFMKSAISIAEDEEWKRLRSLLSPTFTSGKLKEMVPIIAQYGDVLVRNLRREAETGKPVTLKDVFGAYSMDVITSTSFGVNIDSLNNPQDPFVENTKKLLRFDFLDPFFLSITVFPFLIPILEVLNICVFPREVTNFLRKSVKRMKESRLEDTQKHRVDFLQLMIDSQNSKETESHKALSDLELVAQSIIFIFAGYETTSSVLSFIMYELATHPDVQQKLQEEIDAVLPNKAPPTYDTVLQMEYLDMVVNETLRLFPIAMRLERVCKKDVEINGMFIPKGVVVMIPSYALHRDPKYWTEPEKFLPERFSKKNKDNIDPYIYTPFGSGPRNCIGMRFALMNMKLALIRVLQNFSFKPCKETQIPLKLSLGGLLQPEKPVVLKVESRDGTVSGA
SMILES,AC50 (Cytochrome P450 1A2),AC50 (Cytochrome P450 2C19; read-out: AC50),AC50 (Cytochrome P450 2D6),other results
CCCCN(c1ccccc1)c1ncnc2c1cnn2C,0.631 µM (inconclusive),,,
C[S+]([O-])c1ccccc1-c1nc(-c2cc(C(F)(F)F)cc(C(F)(F)F)c2)no1 (stereo not drawn),2.24 µM (inconclusive),8.91 µM (inconclusive),,AC50 (Cytochrome P450 2C9): 17.8 µM (inconclusive)
O=C1c2ccccc2CC[C@H]1CNCCc1ccc(O)cc1,,31.6 µM (inconclusive),,AC50 (Cytochrome P450 2C9): 39.8 µM (inconclusive); AC50 (Cytochrome P450 3A4): 7.94 µM (inconclusive)
C/C(CC(=O)Nc1cc(C)ccn1)=N\NC(=O)C(=O)NC(C)C,,,,AC50 [1]: 19.6 µM (active); EC50 (Protein RecA): 4.48 µM (active)
CC1=C[N+](=O)c2ccccc2[N+]1=O,6.31 µM (inconclusive),,,
CN1CCN(c2ncc3nc(-c4cn(C)c5ccccc45)c(=O)n(CCC#N)c3n2)CC1,,39.8 µM (inconclusive),39.8 µM (inconclusive),AC50 (Cytochrome P450 2C9): 39.8 µM (inconclusive); AC50 (Cytochrome P450 3A4): 25.1 µM (inconclusive)
Cc1nc2ccccc2cc1C[N+]12CN3CN(CN(C3)C1)C2,0.631 µM (inconclusive),,,
CCOc1cc(/C=C(\C#N)C(=O)Nc2cccc(C(=O)O)c2)cc(Br)c1OC(=O)c1ccc(OC)cc1,,,,AC50 [1]: 4.04 µM (active); EC50 (Protein RecA): 13.2 µM (active)
CN1CCCC[C@@H]1CCN1CCCCC1,0.01 µM (inconclusive),,,
N#CCCSC(=S)[C@H]1CCCC1=N,,5.01 µM (inconclusive),,AC50 (Cytochrome P450 3A4): 2.51 µM (inconclusive)
C/C=C(\C)C(=O)O[C@@H]1C(C)=C2[C@H]([C@@H]1OC(=O)CCCCCCC)[C@@](C)(OC(C)=O)C[C@@H](OC(=O)CCC)[C@@]1(O)[C@H]2OC(=O)[C@]1(C)O,39.8 µM (inconclusive),,39.8 µM (inconclusive),
CNC(=O)/C=C1\NC(C)(C)Cc2c1ccc1ccccc21,,,,AC50 (Cytochrome P450 2C9): 5.01 µM (inconclusive); AC50 (Cytochrome P450 3A4): 15.8 µM (inconclusive)
Cc1cc(C)c(S(C)(=O)=O)c(Oc2cccc(C(F)(F)F)c2)n1,,,,AC50 [1]: 213 µM (active); EC50 (Protein RecA): > 380 µM (inactive)
O=[N+]([O-])c1ccc2c(/N=N\c3ccc4ccccc4c3O)c(O)cc(S(=O)(=O)O)c2c1,,2.51 µM (inconclusive),0.631 µM (inconclusive),AC50 (Cytochrome P450 3A4): 3.98 µM (inconclusive)
CN(Cc1ccco1)C(=O)C1CCC(=O)N1Cc1ccc(F)cc1 (stereo not drawn),,,25.1 µM (inconclusive),
Cn1ncc([N+](=O)[O-])c1C(=O)Nc1ccc2c(c1)OCCO2,,0.0355 µM (inconclusive),12.6 µM (inconclusive),AC50 (Cytochrome P450 2C9): 11.2 µM (inconclusive)
CS(=O)(=O)N1CCC2(CCCN(c3ccccn3)C2)CC1,25.1 µM (inconclusive),15.8 µM (inconclusive),25.1 µM (inconclusive),AC50 (Cytochrome P450 3A4): 15.8 µM (inconclusive)
CCCCCCCCC(=O)NCc1ccc(O)c(OC)c1 [NONIVAMIDE],,7.94 µM (inconclusive),25.1 µM (inconclusive),

SMILES,AC50 (Cytochrome P450 1A2),AC50 (Cytochrome P450 2C19; read-out: AC50),AC50 (Cytochrome P450 2D6),other results
O=C(c1ccccc1)[C@H]1[C@H](c2ccccc2[N+](=O)[O-])N1C1CCCCC1 (stereo partly drawn),0.631 µM (inconclusive),,,AC50 (Cytochrome P450 3A4): 3.98 µM (inconclusive)
FC(F)(F)c1ccccc1-c1nc(NC2CC2)c2ccccc2n1,,10 µM (inconclusive),31.6 µM (inconclusive),
c1nc(NC2CCNCC2)c2cc(-c3ccc4c(c3)OCO4)ccc2n1,,,20 µM (inconclusive),
Cc1ccc(S(=O)(=O)O[C@H]2CN3CCC2CC3)cc1,,,3.98 µM (inconclusive),
CN(C)Cc1ccccc1-c1cncnc1NCc1cccnc1,12.6 µM (inconclusive),,,
Cc1c(-c2c(C#N)c(N)nc3c2CCCCCC3)cnn1C,35.5 µM (inconclusive),,,AC50 (Cytochrome P450 2C9): 22.4 µM (inconclusive)
CCOc1cc(/C=C2\C(=N)N3N=C(S(=O)(=O)CC)SC3=NC2=O)ccc1OC(=O)c1ccco1,,,,AC50 [1]: > 380 µM (inactive); EC50 (Protein RecA): 22.1 µM (active)
Nc1ccc(SCCN2C(=O)c3ccccc3C2=O)cc1,,,,EC50 [2]: > 38 µM (not active)
Cc1[nH]c2ccccc2c1C(c1ccccn1)N1CCC(C)CC1 (stereo not drawn),,,25.1 µM (inconclusive),
CCOC(=O)C1CCCN(C(=O)CCn2nc(-c3ccccc3)ccc2=O)C1 (stereo not drawn),,,,AC50 (Cytochrome P450 2C9): 31.6 µM (inconclusive); AC50 (Cytochrome P450 3A4): 17.8 µM (inconclusive)
CC(=O)c1cccc(NC(=O)Oc2ccccc2)c1,28.2 µM (inconclusive),,,AC50 (Cytochrome P450 2C19): inconclusive
CCOc1ccc(C(=O)C2=C(O)C(=O)N(CCCn3ccnc3)C2c2cccs2)cc1Cl (stereo not drawn),,,14.1 µM (inconclusive),EC50 [3]: > 195 µM (not active)
COc1cccc(C(=O)O/N=C(\N)c2ccc([N+](=O)[O-])cc2)c1OC,,,,AC50 [1]: > 380 µM (inactive); EC50 (Protein RecA): > 380 µM (inactive)
COc1ccc(-c2cc(C(F)(F)F)n3nc(C(=O)NCc4ccco4)c(Cl)c3n2)cc1,,1.78 µM (inconclusive),,AC50 (Cytochrome P450 3A4): 3.16 µM (inconclusive)
COc1ccccc1CNc1ncnc2ccc(-c3ccc(C(=O)N(C)C)cc3)cc12,,20 µM (inconclusive),39.8 µM (inconclusive),
Cn1cc(C(=O)N/N=C/C(Br)=C\c2ccccc2)ccc1=O,3.55 µM (inconclusive),28.2 µM (inconclusive),,
C/C(=C\C(=O)c1ccc(Cl)cc1)NCc1ccc2c(c1)OCO2,,,5.01 µM (inconclusive),AC50 (Cytochrome P450 3A4): 0.794 µM (inconclusive)
